For test [1], the target named is T1, human adenosine A2A receptor (Homo sapiens, UniProt P29274).
T1 construct: expressed in transfected cells; host or cells: CHO cells, Semliki Forest virus expression system; membrane preparation
Nature of the test: Human adenosine A2A receptor [3H]-SCH-58261 binding assay. The following applies: for Ki: affinity to human adenosine A2A receptor, read-out: Ki HA2A; for selectivity (A1/A2a): calculated ratio of the affinity to the HA1 receptor to the HA2a receptor.

Test [2] concerns the target T2, HA1 adenosine receptor (Homo sapiens, UniProt P30542).
T2 sequence (P30542 1-326): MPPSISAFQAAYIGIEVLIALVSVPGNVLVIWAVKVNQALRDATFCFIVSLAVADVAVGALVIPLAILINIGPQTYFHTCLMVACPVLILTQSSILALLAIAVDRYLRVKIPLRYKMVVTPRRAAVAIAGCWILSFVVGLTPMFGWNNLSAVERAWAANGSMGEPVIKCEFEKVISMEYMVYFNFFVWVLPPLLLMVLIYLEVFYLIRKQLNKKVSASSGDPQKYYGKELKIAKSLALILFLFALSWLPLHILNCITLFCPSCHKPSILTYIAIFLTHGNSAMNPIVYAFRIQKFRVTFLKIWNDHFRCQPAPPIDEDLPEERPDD
Nature of the test: Human adenosine A1 receptor affinity (Ki hA1). The format is binding. Particulars: affinity to human adenosine A1 receptor.

Consider 28 compounds from US6506772B1, “Substituted [1,2,4]triazolo[1,5a]pyridine derivatives with activity as adenosine receptor ligands” (Hoffmann-La Roche Inc., priority 2000, dated 2003).

T1 sequence (P29274 whole entry): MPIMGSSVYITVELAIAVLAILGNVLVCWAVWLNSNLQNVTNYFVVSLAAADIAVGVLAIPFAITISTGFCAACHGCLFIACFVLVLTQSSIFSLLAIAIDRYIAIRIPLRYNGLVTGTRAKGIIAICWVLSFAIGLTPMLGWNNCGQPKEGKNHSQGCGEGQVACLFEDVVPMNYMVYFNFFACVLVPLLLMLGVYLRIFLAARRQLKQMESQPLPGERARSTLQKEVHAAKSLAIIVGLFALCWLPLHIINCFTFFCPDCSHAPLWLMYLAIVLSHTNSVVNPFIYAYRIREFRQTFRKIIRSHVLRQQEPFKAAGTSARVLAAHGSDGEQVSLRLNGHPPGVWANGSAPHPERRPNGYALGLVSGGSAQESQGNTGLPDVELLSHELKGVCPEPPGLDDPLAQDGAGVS

What is called Ki is the equilibrium dissociation constant of an inhibitor or competing ligand from its target. With `CCN(CC)C(=O)c1cc(N)n2nc(-c3ccccc3)nc2c1` [Example 146, 5-Amino-2-phenyl-[1,2,4]triazolo[1,5-a]pyridine-7-carboxylic acid diethylamide], in test [1], the Ki worked out at 130 nM and the “selectivity (A1/A2a)” value is 15.0. Moreover, in test [2], the affinity corresponds to a Ki of 1960 nM.
For `Nc1cc(C(=O)NC2CCCCC2)cc2nc(-c3ccccc3)nn12` [Example 147, 5-Amino-2-phenyl-[1,2,4]triazolo[1,5-a]pyridine-7-carboxylic acid cyclohexylamide], the Ki in test [1] came to 140 nM; in test [2] it was 453 nM. In addition, the “selectivity (A1/A2a)” value in test [1] is 3.2.
As for `CN(C(=O)c1cc(N)n2nc(-c3ccccc3)nc2c1)C1CCCCC1` [Example 148, 5-Amino-2-phenyl-[1,2,4]triazolo[1,5-a]pyridine-7-carboxylic acid cyclohexyl-methyl-amide], in test [1], the Ki worked out at 148 nM and the “selectivity (A1/A2a)” value is listed as 8.1. In test [2], this compound yielded a Ki of 1200 nM.
Consider `Nc1cc(C(=O)NC2CCc3ccccc32)cc2nc(-c3ccccc3)nn12` (stereo not drawn) [Example 149, 5-Amino-2-phenyl-[1,2,4]triazolo[1,5-a]pyridine-7-carboxylic acid indan-1-ylamide], for which, in test [1], the Ki is 57.4 nM and the “selectivity (A1/A2a)” value is 1.7. Also, the affinity in test [2] corresponds to a Ki of 98.1 nM.
For `Nc1cc(C(=O)N2CCCC2)cc2nc(-c3ccccc3)nn12` [Example 150, (5-Amino-2-phenyl-[1,2,4]triazolo[1,5-a]pyridin-7-yl)-pyrrolidin-1-yl-methanone], in that order: 82.3 nM, 8.6 and 711 nM.
Consider `Nc1cc(C(=O)N2CCCCC2)cc2nc(-c3ccccc3)nn12` [Example 151, (5-Amino-2-phenyl-[1,2,4]triazolo[1,5-a]pyridin-7-yl)-piperidin-1-yl-methanone], for which, in test [1], the Ki turned out to be 85.5 nM and the “selectivity (A1/A2a)” value is given as 10.8. In test [2], this compound returned a Ki of 928 nM.
For `CN(Cc1ccccc1)C(=O)c1cc(N)n2nc(-c3ccccc3)nc2c1` [Example 152, 5-Amino-2-phenyl-[1,2,4]triazolo[1,5-a]pyridine-7-carboxylic acid benzyl-methyl-amide], in that order: 32.8 nM, 11.2 and 367 nM.
`CCN(CC)C(=O)c1cc(N)n2nc(-c3ccoc3)nc2c1` [Example 153, 5-Amino-2-furan-3-yl-[1,2,4]triazolo[1,5-a]pyridine-7-carboxylic acid diethylamide]: in test [1], the inhibition constant (Ki) is 301 nM and the “selectivity (A1/A2a)” value is 16.0. The affinity in test [2], expressed as Ki, was 4800 nM.
For `Nc1cc(C(=O)NC2CCCCC2)cc2nc(-c3ccoc3)nn12` [Example 154, 5-Amino-2-furan-3-yl-[1,2,4]triazolo[1,5-a]pyridine-7-carboxylic acid cyclohexylamide], in that order: 88.1 nM, 13.3 and 1180 nM.
In the same order, the values of `Nc1cc(C(=O)N2CCCCC2)cc2nc(-c3ccoc3)nn12` [Example 155, (5-Amino-2-furan-3-yl-[1,2,4]triazolo[1,5-a]pyridin-7-yl)-piperidin-1-yl-methanone] are 301 nM, 19.4 and 5850 nM.
In the same order, the values of `Nc1cc(C(=O)NCc2ccccc2Cl)cc2nc(-c3ccoc3)nn12` [Example 156, 5-Amino-2-furan-3-yl-[1,2,4]triazolo[1,5-a]pyridine-7-carboxylic acid 2-chloro-benzylamide] are 17.1 nM, 13.3 and 228 nM.
As for `Nc1cc(C(=O)NCc2ccccc2Br)cc2nc(-c3ccoc3)nn12` [Example 157, 5-Amino-2-furan-3-yl-[1,2,4]triazolo[1,5-a]pyridine-7-carboxylic acid 2-bromo-benzylamide], in test [1], the inhibition constant (Ki) worked out at 18 nM and the “selectivity (A1/A2a)” value is 12.8. In test [2], the Ki turned out to be 231 nM.
For `CCCCNC(=O)c1cc(N)n2nc(-c3ccccc3O)nc2c1` [Example 158, 5-Amino-2-(2-hydroxy-phenyl)-[1,2,4]triazolo[1,5-a]pyridine-7-carboxylic acid butylamide], in that order: 87.5 nM, 3.0 and 258 nM.
In the same order, the values of `Nc1cc(C(=O)NCc2ccccc2Cl)cc2nc(-c3ccccc3O)nn12` [Example 159, 5-Amino-2-(2-hydroxy-phenyl)-[1,2,4]triazolo[1,5-a]pyridine-7-carboxylic acid 2-chloro-benzylamide] are 105 nM, 2.7 and 279 nM.
Take `Nc1cc(C(=O)NCc2ccccc2Br)cc2nc(-c3ccccc3O)nn12` [Example 160, 5-Amino-2-(2-hydroxy-phenyl)-[1,2,4]triazolo[1,5-a]pyridine-7-carboxylic acid 2-bromo-benzylamide]: the values for the Ki in test [1] and in test [2] were 126 nM and 139 nM, respectively. In addition, the “selectivity (A1/A2a)” value in test [1] is recorded as 1.1.
For `CCCCNC(=O)c1cc(N)n2nc(-c3cccs3)nc2c1` [Example 161, 5-Amino-2-thiophen-2-yl-[1,2,4]triazolo[1,5-a]pyridine-7-carboxylic acid butylamide], in that order: 28 nM, 161 nM and 5.7.
As for `Nc1cc(C(=O)NC2CCCCC2)cc2nc(-c3cccs3)nn12` [Example 162, 5-Amino-2-thiophen-2-yl-[1,2,4]triazolo[1,5-a]pyridine-7-carboxylic acid cyclohexylamide], the inhibition constant (Ki) was determined as 61.4 nM in test [1] and 301 nM in test [2]. In addition, the “selectivity (A1/A2a)” value in test [1] is recorded as 4.9.
`Nc1cc(C(=O)NCc2ccccc2Cl)cc2nc(-c3cccs3)nn12` [Example 163, 5-Amino-2-thiophen-2-yl-[1,2,4]triazolo[1,5-a]pyridine-7-carboxylic acid 2-chloro-benzylamide]: in test [1], the Ki stood at 31.1 nM and the “selectivity (A1/A2a)” value is 4.0. The affinity in test [2], expressed as Ki, was 125 nM.
Turning to `Nc1cc(C(=O)NCc2ccccc2Br)cc2nc(-c3cccs3)nn12` [Example 164, 5-Amino-2-thiophen-2-yl-[1,2,4]triazolo[1,5-a]pyridine-7-carboxylic acid 2-bromo-benzylamide], the values for the Ki in test [1] and in test [2] were 25.5 nM and 111 nM, respectively. In addition, in test [1], the “selectivity (A1/A2a)” value is reported as 4.4.
In the same order, the values of `Nc1cc(C(=O)NC2CCCCC2)cc2nc(-c3ccc(Br)o3)nn12` [Example 165, 5-Amino-2-(5-bromo-furan-2-yl)-[1,2,4]triazolo[1,5-a]pyridine-7-carboxylic acid cyclohexylamide] are 88.8 nM, 770 nM and 8.7.
For `Nc1cc(C(=O)NCc2ccccc2)cc2nc(-c3ccc(Br)o3)nn12` [Example 166, 5-Amino-2-(5-bromo-furan-2-yl)-[1,2,4]triazolo[1,5-a]pyridine-7-carboxylic acid benzylamide], in that order: 39.7 nM, 201 nM and 5.1.
In the same order, the values of `Nc1cc(C(=O)NCc2ccccc2Br)cc2nc(-c3ccc(Br)o3)nn12` [Example 167] are 42.7 nM, 196 nM and 4.6.
On to `CCCCNC(=O)c1cc(N)n2nc(-c3cc(Br)co3)nc2c1` [Example 168, 5-Amino-2-(4-bromo-furan-2-yl)-[1,2,4]triazolo[1,5-a]pyridine-7-carboxylic acid butylamide], for which the Ki in test [1] was 18.4 nM; in test [2] it was 47.2 nM. Also, in test [1], the “selectivity (A1/A2a)” value is given as 2.6.
In the same order, the values of `CCN(CC)C(=O)c1cc(N)n2nc(-c3cc(Br)co3)nc2c1` [Example 169, 5-Amino-2-(4-bromo-furan-2-yl)-[1,2,4]triazolo[1,5-a]pyridine-7-carboxylic acid diethylamide] are 119 nM, 407 nM and 3.4.
Consider `Nc1cc(C(=O)N2CCCC2)cc2nc(-c3cc(Br)co3)nn12` [Example 170, [5-Amino-2-(4-bromo-furan-2-yl)-[1,2,4]triazolo[1,5-a]pyridin-7-yl]-pyrrolidin-1-yl-methanone], for which, in test [1], the Ki is 33.8 nM and the “selectivity (A1/A2a)” value is given as 4.5. Moreover, in test [2], the Ki came to 152 nM.
As for `Nc1cc(C(=O)N2CCCCC2)cc2nc(-c3cc(Br)co3)nn12` [Example 171, [5-Amino-2-(4-bromo-furan-2-yl)-[1,2,4]triazolo[1,5-a]pyridin-7-yl]-piperidin-1-yl-methanone], in test [1], the inhibitory constant (Ki) came to 64.9 nM and the “selectivity (A1/A2a)” value was 4.3. In test [2], this compound gave a Ki of 276 nM.
For `Nc1cc(C(=O)NCc2ccccc2)cc2nc(-c3cc(Br)co3)nn12` [Example 172, 5-Amino-2-(4-bromo-furan-2-yl)-[1,2,4]triazolo[1,5-a]pyridine-7-carboxylic acid benzylamide], in test [1], the Ki was found to be 29.7 nM and the “selectivity (A1/A2a)” value was 0.8. The same compound returned a Ki in test [2] of 24.7 nM.
For `CC(C)N(Cc1ccccc1)C(=O)c1cc(N)n2nc(-c3cc(Br)co3)nc2c1` [Example 173, 5-Amino-2-(4-bromo-furan-2-yl)-[1,2,4]triazolo[1,5-a]pyridine-7-carboxylic acid benzyl-isopropyl-amide], in that order: 44.4 nM, 1.7 and 73.6 nM.
